Results: the NIST ThermoML archive (doi:10.1016/j.fluid.2015.12.007)
± gives the expanded uncertainty stated by the source.

Details: 101.33 kPa, Liquid; for speed of sound: Sing-around technique in a fixed-path interferometer; for mass density: Vibrating tube method

SMILES	speed of sound (293.15 K) [m/s]	mass density (293.15 K) [kg/m3]	speed of sound (298.15 K) [m/s]	mass density (298.15 K) [kg/m3]	speed of sound (303.15 K) [m/s]	mass density (303.15 K) [kg/m3]	speed of sound (308.15 K) [m/s]	mass density (308.15 K) [kg/m3]	speed of sound (313.15 K) [m/s]	mass density (313.15 K) [kg/m3]	speed of sound (318.15 K) [m/s]	mass density (318.15 K) [kg/m3]
CCCC[n+]1ccn(C)c1.O=S(=O)([N-]S(=O)(=O)C(F)(F)F)C(F)(F)F	1238.6 ± 1.2	1440.81 ± 0.23	1227.4 ± 1.2	1435.99 ± 0.23	1216.3 ± 1.2	1431.2 ± 0.22	1205.4 ± 1.2	1426.42 ± 0.22	1194.7 ± 1.2	1421.66 ± 0.22	1184.1 ± 1.2	1416.91 ± 0.22
CC(O)CO (stereo not drawn) [1,2-propanediol]	1516.4 ± 1.3	1035.73 ± 0.14	1505.9 ± 1.3	1032.03 ± 0.13	1493.3 ± 1.3	1028.31 ± 0.13	1480 ± 1.3	1024.55 ± 0.13	1466.3 ± 1.3	1020.75 ± 0.13	1452.7 ± 1.3	1016.92 ± 0.13
CCCCn1cc[n+](C)c1.F[B-](F)(F)F [1-butyl-3-methylimidazolium tetrafluoroborate]	1576.6 ± 1.2	1204.89 ± 0.15	1564.9 ± 1.2	1201.33 ± 0.15	1553.6 ± 1.2	1197.78 ± 0.15	1542.2 ± 1.2	1194.23 ± 0.15	1530.9 ± 1.2	1190.7 ± 0.15	1520 ± 1.2	1187.18 ± 0.15
CCCCn1cc[n+](C)c1.COS(=O)(=O)[O-] [1-butyl-3-methylimidazolium methyl sulfate]	1669.8 ± 3.2	1211.97 ± 2.8	1657.1 ± 3.2	1208.61 ± 2.8	1644.6 ± 3.2	1205.25 ± 2.8	1632.4 ± 3.2	1201.89 ± 2.8	1620.4 ± 3.2	1198.54 ± 2.8	1608.8 ± 3.2	1195.2 ± 2.8
